# Data from ChEMBL document CHEMBL5154777, “Alternative approaches utilizing click chemistry to develop next-generation analogs of solithromycin” (2022).
# Assays:
# Format in all cases: functional
# [1] = system: Staphylococcus aureus; assay: Antibacterial activity against Staphylococcus aureus ATCC 33591
# [2] = system: Escherichia coli; assay: Antibacterial activity against Escherichia coli DK2058G
# [3] = system: Enterococcus faecium; assay: Antibacterial activity against Enterococcus faecium NCTC 7171
# [4] = system: Staphylococcus aureus; assay: Antibacterial activity against Staphylococcus aureus UCN18
# [5] = system: Escherichia coli; assay: Antibacterial activity against Escherichia coli DK
# [6] = system: Escherichia coli; assay: Antibacterial activity against Escherichia coli SQ171
# [7] = system: Staphylococcus aureus; assay: Antibacterial activity against methicillin-resistant Staphylococcus aureus ATCC 43300
# [8] = system: Acinetobacter baumannii; assay: Antibacterial activity against Acinetobacter baumannii 2208 ATCC 19606
# [9] = system: Klebsiella pneumoniae; assay: Antibacterial activity against Klebsiella pneumoniae BAA 2146
# [10] = system: Escherichia coli; assay: Antibacterial activity against Escherichia coli MG1655
# [11] = system: Staphylococcus aureus; assay: Antibacterial activity against Staphylococcus aureus UCN17
# [12] = system: Staphylococcus aureus; assay: Antibacterial activity against Staphylococcus aureus ATCC 29213
# [13] = system: Escherichia coli; assay: Antibacterial activity against Escherichia coli DK3535
# [14] = system: Streptococcus pneumoniae; assay: Antibacterial activity against Streptococcus pneumoniae 2196 erm B
# [15] = system: Escherichia coli; assay: Antibacterial activity against Escherichia coli SQ171 2058G
# [16] = system: Streptococcus pneumoniae; assay: Antibacterial activity against Streptococcus pneumoniae 2634 mef A 2059G
# [17] = system: Streptococcus pneumoniae; assay: Antibacterial activity against Streptococcus pneumoniae 655 mef A
# [18] = system: Enterobacter cloacae; assay: Antibacterial activity against Enterobacter cloacae ATCC 13047
# [19] = system: Pseudomonas aeruginosa; assay: Antibacterial activity against Pseudomonas aeruginosa HER 1018
# [20] = system: Staphylococcus aureus; assay: Antibacterial activity against Staphylococcus aureus UCN14
smiles,measurement,setting,value
CC[C@H]1OC(=O)[C@@](C)(F)C(=O)[C@H](C)[C@@H](O[C@@H]2O[C@H](C)C[C@H](N(C)C)[C@H]2O)[C@](C)(OC)C[C@@H](C)C(=O)[C@H](C)[C@H]2N(CCCCn3cc(-c4cccc(N)c4)nn3)C(=O)O[C@]12C [SOLITHROMYCIN],MIC,[1],38 µM
same,MIC,[2],4.7 µM
same,MIC,[3],0.2 µM
same,MIC,[4],4.7 µM
same,MIC,[5],2.4 µM
same,MIC,[6],> 38 µM
same,MIC,[7],> 200 µM
same,MIC,[8],50 µM
same,MIC,[9],100 µM
same,MIC,[10],100 µM
same,MIC,[11],4.7 µM
same,MIC,[12],0.071 µM
same,MIC,[13],2.4 µM
same,MIC,[14],0.59 µM
same,MIC,[15],> 38 µM
same,MIC,[16],0.15 µM
same,MIC,[17],0.29 µM
same,MIC,[18],200 µM
same,MIC,[19],30 µM
same,MIC,[20],9.5 µM
